# Test results published in patent US10213425B2, “Role of N-2-hydroxy-ethyl-piperazine-N′-2-ethane sulfonic acid (HEPES) in pain control and reversal of demyelinization injury” (Bespoke Bioscience, LLC, priority 2009, dated 2019).
# What was measured:
# [1] = General clinical administration of HEPES: effective dosage and tolerability; assay type: in vivo, human
# Description: The product, HEPES, is produced in ultra-pure form and is available from GIBCOL Technologies, Inc. The product is administered on a body weight basis with the determined minimal effective daily dosage of 70-75 mg/kg. The material may be safely given either by oral or parenteral routes. […] The administered product is prepared by a compounding pharmacist, with the dosage of each patient recipient being individualized.
# [2] = system: Cancer of the Pancreas; test: Clinical case, cancer of the pancreas with metastases: analgesic and anti-tumor activity (Example 6); assay type: in vivo, human
# Description: The pain was not relieved by passing bowel movements or any other maneuver. They were seen by their personal physician, who diagnosed Type II diabetes mellitus. They were placed on anti-diabetic medication and diet. No additional studies related to the abdominal pain were carried out, even though they were peculiar in a patient with diabetes. Their diabetic state was under satisfactory control with a few weeks, but the abdominal pain problem persisted.
# The abdominal pains increased in intensity with new severe pains in the mid-dorsal thoracic spine. […] They underwent radiation treatments for the thoracic lesions which eased, to a limited extent, the pain in this area.
# In consultation with the patient ombudsmen group at M. D. Anderson Hospital in Houston, Tex., the family was told that none of the current study protocols were appropriate for their current condition of cancer of the pancreas with wide-spread metastases and such advanced disease. They were given 2-4 months to live. It was recommended that they be treated with pain protocols by the local institutions in the Dallas-Fort Worth area. They were treated by their personal physician who placed them on opiate analgesics for pain control.
# In February, 2006, their personal physician contacted the present inventors concerning the possible addition of HEPES as they were receiving the maximal level of opiate medication, which was not controlling the pain the patient was experiencing. In March, 2006, they were placed on a daily dosage of the product administered by intravenous infusion, while continuing their maximum opiate analgesic medication.
# In July, 2006, they developed significant anorexia, probably secondary to the increasing levels of endogenous TNF-alpha (cachectic factor). Dronabinol was recommended, but refused by the patient owing to the medication being derived from marijuana. Thereafter, natural source inhibitors of cachectic factor (Table 2) were recommended, but the patient refused to take any of these as they felt these might interfere with the pain control, which was acceptable. They were then offered parenteral nutritional support, which they declined.
# From mid-November, 2006, […] developed weakness associated with continued weight loss, and from late November became bed-ridden. […] 2006. While the death certificate lists the cause of death as cancer of the pancreas, in truth the cause of death was terminal anorexia, inanition, and malnutrition, with more than 65 pound weigh loss.
# [3] = system: Parkinson's Disease; test: Clinical cases, Parkinson's Disease patients (Examples 4 and 5); assay type: in vivo, human
# Text: […] The family history is positive. They have been tried on a variety of Parkinsonian medications, the beneficial actions of which seem to disappear within a few months.
# The hand tremor was present only to a small degree, but the head tremors and tics were very prominent to the degree that […] would become nauseated if […] kept […] vision pinpointed.
# patient one is a person who has had Parkinsonian symptoms since they were […]. They were placed on levo-dopa with gradual increases to six per day along with large doses of Mirapex and polyethylene glycol for their problem with constipation. Their constipation was really quite intractable with abdominal distention and protrusion, nausea and vomiting. Also very worrisome was their diminished deglutitionary activity and tongue biting with oral bleeding. They were unable to stand without assistance and their hesitant walk favored the festinative aspects. […] Over time the daily dosage of levodopa was reduced from the prescribed 6 per day to 2 per day to which a small dose of the dopamine agonist, bromocriptine, was added with singularly beneficial results. Their condition improved to the extent that they were again able to drive themself to the store, buy gasoline, and eat out. Most, most gratifying, indeed!
# They were placed on an active bowel treatment program with good results which, when required was supplemented with an enema q.o.d. They continued to be monitored closely.
# [4] = system: Pediatric Autoimmune Neurological Disease Associated with Strep (PANDAS); test: Clinical case, Pediatric Autoimmune Neurological Disease Associated with Strep (PANDAS) (Example 7); assay type: in vivo, human; conditions: for frequency of athetotic movements: intravenous
# [5] = system: Multiple Sclerosis; test: Clinical case, Multiple Sclerosis patient (Example 1); assay type: in vivo, human; conditions: MS patient
# Text: patient four is a public elementary school teacher, who was diagnosed with MS when they were […].
# Mentally, they often experienced periods of lack of concentration and follow-through of immediate projects, generalized muscular stiffness and lack of fine motor coordination with episodes of lurching gait and imbalance. Very bothersome was their manual discoordination which adversely influenced their writing on the chalk board. Indeed, the symptoms were so frequent that their teaching contract was not renewed. They subsequently obtained employment at an academically excellent small Episcopal school where the classes were small and the stress level was considerably less compared with the public school system.
# Despite these changes of venue, they had more frequent exacerbations and remissions and experienced multiple medication programs with their very concerned neurologist physician. They continued to use block letters on the blackboard rather than cursive black-board writing as a form of communicating with their students.
# After a particularly severe episode of problems, they completely lost the ability to write (e.g., writing a payment check) owing to the loss of manual sensory function and erratic motor movements. The present inventors were asked to see them by the school administrator, who served as their friend and confidant. […]
# [6] = system: Cerebral Palsy; test: Clinical case, cerebral palsy patient (Example 2); assay type: in vivo, human; conditions: oral 5,000 mg daily
# Text: patient five is a child of extraction, whose birthing was extremely difficult, and very probably associated with some degree of neonatal asphyxia, although this was not seriously reflected in the Apgar Score. The person has had superb medical care all their life long with loving and supportive parents able to provide recommended therapies.
# Despite the abundance of treatment programs, it required nearly five years for […] to walk slowly in an unassisted manner. Amazingly, their speech pattern and intellectual capabilities were remarkably functional. A major problem was their significant dysfunction with motor skills in their hands. M.S. was given an oral dosage of HEPES of 5,000 mg daily (2 tsps with breakfast, 1 tsp mid-afternoon, and 2 tsps at bedtime). […] After 8 months of therapy, their walking and manual skills have improved to 85% of normal. They became devoted to spending several hours daily on the computer and the amount of knowledge they have acquired and retained is, indeed, phenomenal. The change in this young person has been outstanding and truly gratifying to their parents, their siblings, and especially their physicians.
# [7] = system: cell cultures of both animal and human origin; conditions: studies not specified; cited from earlier work
# [8] = system: Benzodiazepine Withdrawal Symptoms; test: Clinical case, benzodiazepine withdrawal symptoms (Example 8); assay type: in vivo, human
# Text: patient five is a person, who was initially placed on benzodiazepine medication for panic attacks which presented. They have been on various forms of medications constituting this group for more than three decades. The dilemma which exists is that often the original condition for which the diazepines are prescribed are considered to be psychiatric in nature. When pain and neurological symptoms appear associated with withdrawal, it is often misdiagnosed with additional medications given which compounds the problem. These medications are recommended for short term treatment (4-6 weeks) only, but as with this patient, usage extends over years. One of the major withdrawal symptoms include violent repetitive “tics” which are considerably worsened with emotional situations and other stressors. Abnormal ideation often takes the form of bizarre thoughts as the functioning of the superego is marked impaired. Thus, these patients do things which under normal conditions would never contemplate, much less act out. As a result of these factors, our patient lost their successful business, their houses, and their family comprised of their spouse and three beautiful daughters. They walk with a hopping motion associated with bizarre flailing movements of the shoulder and arms. On the internet are listings of more than 300 withdrawal symptoms. The present inventors were consulted on this patient to see if we could ameliorate their extreme pain problems. Their neurologic examination was truly strange. […] They were started on HEPES by the oral route. […] They will be closely monitored as to their condition with additional treatment.
# [9] = system: Post Chemotherapy Cognitive Impairment (PCCI); test: Clinical case, post chemotherapy cognitive impairment (Example 3); assay type: in vivo, human; conditions: PCCI patient, oral 5,000 mg daily in divided doses, after a month
# Text: patient two is a person who, prior to their diagnosis of breast cancer, has been in charge of the family business involving a host of necessary transactions, including maintenance of financial records and tax liabilities. Post chemotherapy they had profound difficulty remembering what day it was, what time it was, had they taken their morning bath, what to cook for any meal, forgetfulness as to daily chores, transporting their children to school-sponsored events, suddenly breaking telephone conversations with their concerned parent without any recall of the action. The major deficit business-wise was the inability to perform simple mathematical calculations. […] They thought they “was going bonkers!” Their parent inquired as to what could be done to alleviate the rapidly deteriorating family problems. A trial on HEPES was recommended as the symptoms were, at least in part, related to demyelination. They were started on oral HEPES, 5,000 mg daily in divided doses. […] They continue to show improvement in a gratifying manner.
# [10] = system: Chronic Inflammatory Demyelinating Polyradiculoneuropathy (CIDP); test: Clinical case, Chronic Inflammatory Demyelinating Polyradiculoneuropathy (Example 9); assay type: in vivo, human; conditions: daily oral product, after three weeks
# Text: patient three is a person who presents with a history of multiple allergies, infections (including viral meningitis/aseptic encephalitis), multiple episodes of antibiotic treatments, etc. They describe their physical status historically as follows: “I have been seriously ill since 1991 with progressive neurologic deficits, which culminated with significant loss of motor control in 1993. The condition was misdiagnosed as Multiple Sclerosis with negative findings on Mill.” They initially ambulated slowly with the use of a cane. In 1994 they were paralyzed from the neck down. They were treated with Ig intravenously and recovered over a period of weeks. Five months later, they experienced a similar episode. This time the Ig therapy was only weakly helpful, and they as treated with therapeutic plasma exchanges every two weeks. They have recently been experiencing significant pains in their extremities and HEPES was started orally both for pain control and possible reinforcement of any myelinating defects, as our medical colleagues in the Netherlands have had significant success in reversing the demyelination process.
# [11] = Example 5 patient, 6,000 mg daily, continued treatment
# [12] = continued daily product at 75 mg/kg
smiles,measurement,setting,value
"O=S(=O)(O)CCN1CCN(CCO)CC1 [HEPES, N-2-hydroxyethylpiperazine-N′-2-ethanesulfonic acid]",minimal effective daily dosage,[1]; administered on a body weight basis,70 to 75 mg/kg
same,side-effects,[1]; general statement on the HEPES product,no side-effects
same,side-effects,[1]; oral and parenteral routes,without any significant side-effects
same,opiate side-effects,[2]; HEPES administration with reduced opiate narcotic analgesia,elimination of opiate side-effects
same,opiate analgesic dosage giving good pain control,"[2]; daily intravenous HEPES, narcotic medication slowly reduced over three months",about 25 % of the maximum dosage of the opiate analgesics
same,pain,"[2]; daily intravenous infusion added to maximum opiate analgesic medication, after 5 days",completely controlled
same,anti-tumor effect,"[2]; pancreatic cancer with wide-spread metastases, several additional months of quality living",a significant anti-tumor effect
same,"muscular fatigue, stiffness, and tics","[3]; Example 4 patient, 5,000 mg daily in divided doses, within a three-week period",all disappeared
same,patient-reported overall condition,"[3]; Example 4 patient, 5,000 mg daily, after another couple of weeks",felt like they were before the diagnosis was made
same,daily dosage of levodopa needed,"[3]; Example 5 patient, 6,000 mg HEPES daily, over time, reduced from the prescribed 6 per day, bromocriptine added",2 per day
same,swallowing difficulties and tongue biting,"[3]; Example 5 patient, 6,000 mg daily in divided doses, within three days",obviated their swallowing difficulties and abrogated their tongue biting
same,energy level,[3]; [11],improved significantly
same,facial mask,[3]; [11],completely disappeared
same,frequency of athetotic movements,"[4]; 70-75 mg/kg level achieved, end of the first week, 1,300-1,500 per day before",10-15 per day
same,frequency of athetotic movements,[4]; end of the second week,2-3 movements per day
same,involuntary athetoid movements,"[4]; oral medication at the same daily dosage, during the next three weeks, triggered by emotional or stressful circumstances",infrequent involuntary athetoid movements
same,tics after product withdrawn,"[4]; product decreased gradually, no product being given",tic-free
same,motor function and exacerbations on continued medication,[5]; continued on the oral medication,maintained their motor function as well as being free of new exacerbations
same,ability to write,"[5]; oral HEPES 5,000 mg daily, after only three days of treatment",regained the ability to write cursively and sign their name in a legible fashion
same,walking and manual skills,[6]; after 8 months of therapy,85 % of normal
same,movement and control of hands and fingers,[6]; after three weeks,improved to the point where they could selectively (upon oral command) depress the correct key on the computer
same,walking pattern,[6]; after three weeks,considerable improvement with significant reduction in ataxic characteristics
same,cytotoxicity compared with other buffers,[7],least cytotoxicity of all the known buffers
same,athetoid movements,[8]; [12],significant reduction in their athetoid movements
same,gait,[8]; [12],improved gait
same,ideation,[8]; [12],more cogent ideation
same,"pain (jaws and teeth, shoulder joints and muscles, precordial chest, temples)",[8]; [12],significant relief of their pain
same,dorsiflexion of left foot on neurologic examination,"[8]; oral route, after four days on the product",normal dorsiflexion of their left foot
same,"brain fog (""cloud"")",[9],the “cloud” was gone
same,pain in extremities,[10],completely controlled
same,weakness in lower extremities,[10],almost completely resolved
